Source: the supplement of paper PMC10307832

Experiments:
Assay in all cases: relative viability (nuclei count vs DMSO), 5 days (fraction); higher = more cells survive
FH535 + Crizotinib = compound: CC1=C(C=CC(=C1)[N+](=O)[O-])NS(=O)(=O)C2=C(C=CC(=C2)Cl)Cl [FH535] + C[C@@H](Oc1cc(-c2cnn(C3CCNCC3)c2)cnc1N)c1c(Cl)ccc(F)c1Cl [Crizotinib] (partner 1 µM)
Procedure, shortened: (§1)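 Relative viability was taken as the ratio of nuclei in treated wells to nuclei in vehicle wells. Lung cancer cell lines in 1536-well plates received compounds by pin tool one day after seeding, either one drug alone or a fixed anchor-drug dose plus five library-drug doses (not always all listed) in √10 steps. Nuclei were counted on 4× images after 5 days of treatment, and values are medians of duplicate plates.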

FH535 + Pictilisib = compound: CC1=C(C=CC(=C1)[N+](=O)[O-])NS(=O)(=O)C2=C(C=CC(=C2)Cl)Cl [FH535] + CS(=O)(=O)N1CCN(Cc2cc3nc(-c4cccc5[nH]ncc45)nc(N4CCOCC4)c3s2)CC1 [Pictilisib] (partner 1 µM)
Procedure, shortened: as §1

FH535 + Alpelisib = compound: CC1=C(C=CC(=C1)[N+](=O)[O-])NS(=O)(=O)C2=C(C=CC(=C2)Cl)Cl [FH535] + Cc1nc(NC(=O)N2CCC[C@H]2C(N)=O)sc1-c1ccnc(C(C)(C)C(F)(F)F)c1 [Alpelisib] (partner 2 µM)
Procedure, shortened: as §1

FH535 + Luminespib = compound: CC1=C(C=CC(=C1)[N+](=O)[O-])NS(=O)(=O)C2=C(C=CC(=C2)Cl)Cl [FH535] + CCNC(=O)c1noc(-c2cc(C(C)C)c(O)cc2O)c1-c1ccc(CN2CCOCC2)cc1 [Luminespib] (partner 0.01 µM)
Procedure, shortened: as §1

FH535 + Linsitinib = compound: CC1=C(C=CC(=C1)[N+](=O)[O-])NS(=O)(=O)C2=C(C=CC(=C2)Cl)Cl [FH535] + C[C@]1(O)C[C@@H](c2nc(-c3ccc4ccc(-c5ccccc5)nc4c3)c3c(N)nccn32)C1 [Linsitinib] (partner 1 µM)
Procedure, shortened: as §1

FH535 + Lapatinib = compound: CC1=C(C=CC(=C1)[N+](=O)[O-])NS(=O)(=O)C2=C(C=CC(=C2)Cl)Cl [FH535] + CS(=O)(=O)CCNCc1ccc(-c2ccc3ncnc(Nc4ccc(OCc5cccc(F)c5)c(Cl)c4)c3c2)o1 [Lapatinib] (partner 2 µM)
Procedure, shortened: as §1

FH535 + Phenformin = compound: CC1=C(C=CC(=C1)[N+](=O)[O-])NS(=O)(=O)C2=C(C=CC(=C2)Cl)Cl [FH535] + N=C(N)NC(=N)NCCc1ccccc1 [Phenformin] (partner 250 µM)
Procedure, shortened: as §1

FH535 + Pemetrexed = compound: CC1=C(C=CC(=C1)[N+](=O)[O-])NS(=O)(=O)C2=C(C=CC(=C2)Cl)Cl [FH535] + Nc1nc2[nH]cc(CCc3ccc(C(=O)N[C@@H](CCC(=O)O)C(=O)O)cc3)c2c(=O)[nH]1 [Pemetrexed] (partner 0.2 µM)
Procedure, shortened: as §1

FH535 + Bortezomib = compound: CC1=C(C=CC(=C1)[N+](=O)[O-])NS(=O)(=O)C2=C(C=CC(=C2)Cl)Cl [FH535] + CC(C)C[C@H](NC(=O)[C@H](Cc1ccccc1)NC(=O)c1cnccn1)B(O)O [Bortezomib] (partner 0.002 µM)
Procedure, shortened: as §1

FH535 + OSI-027 = compound: CC1=C(C=CC(=C1)[N+](=O)[O-])NS(=O)(=O)C2=C(C=CC(=C2)Cl)Cl [FH535] + COc1cccc2cc(-c3nc([C@H]4CC[C@H](C(=O)O)CC4)n4ncnc(N)c34)[nH]c12 [OSI-027] (partner 0.5 µM)
Procedure, shortened: as §1

FH535 + Foretinib = compound: CC1=C(C=CC(=C1)[N+](=O)[O-])NS(=O)(=O)C2=C(C=CC(=C2)Cl)Cl [FH535] + COc1cc2c(Oc3ccc(NC(=O)C4(C(=O)Nc5ccc(F)cc5)CC4)cc3F)ccnc2cc1OCCCN1CCOCC1 [Foretinib] (partner 0.25 µM)
Procedure, shortened: as §1

FH535 + Dasatinib = compound: CC1=C(C=CC(=C1)[N+](=O)[O-])NS(=O)(=O)C2=C(C=CC(=C2)Cl)Cl [FH535] + Cc1nc(Nc2ncc(C(=O)Nc3c(C)cccc3Cl)s2)cc(N2CCN(CCO)CC2)n1 [Dasatinib] (partner 0.075 µM)
Procedure, shortened: as §1

FH535 = compound: CC1=C(C=CC(=C1)[N+](=O)[O-])NS(=O)(=O)C2=C(C=CC(=C2)Cl)Cl [FH535]
Procedure, shortened: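 On vehicle-anchored 1536-well plates, lung cancer cell lines held overnight at 37 °C were pinned with five library-drug doses (not always all listed) spaced by √10. With no medium change over 5 days, they were then fixed, permeabilised and Hoechst-stained in one step and imaged at 4×. MetaXpress counted nuclei, and viability is the median across plates of treated-well over vehicle-well nuclei. Acceptance needed control CV below 25% and at least one doubling.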

FH535 + Tozasertib = compound: CC1=C(C=CC(=C1)[N+](=O)[O-])NS(=O)(=O)C2=C(C=CC(=C2)Cl)Cl [FH535] + Cc1cc(Nc2cc(N3CCN(C)CC3)nc(Sc3ccc(NC(=O)C4CC4)cc3)n2)n[nH]1 [Tozasertib] (partner 0.1 µM)
Procedure, shortened: as §1

NCI-H1563
relative viability (FH535 + Crizotinib; first compound 0.04 µM): 0.871 | relative viability (FH535 + Crizotinib; first compound 0.1265 µM): 0.948 | relative viability (FH535 + Crizotinib; first compound 0.4 µM): 0.88 | relative viability (FH535 + Crizotinib; first compound 1.265 µM): 0.757 | relative viability (FH535 + Pictilisib; first compound 0.04 µM): 0.631 | relative viability (FH535 + Pictilisib; first compound 0.1265 µM): 0.657 | relative viability (FH535 + Pictilisib; first compound 0.4 µM): 0.627 | relative viability (FH535 + Pictilisib; first compound 1.265 µM): 0.637 | relative viability (FH535 + Alpelisib; first compound 0.04 µM): 0.89 | relative viability (FH535 + Alpelisib; first compound 0.1265 µM): 0.931 | relative viability (FH535 + Alpelisib; first compound 0.4 µM): 0.981 | relative viability (FH535 + Alpelisib; first compound 1.265 µM): 0.837 | relative viability (FH535 + Luminespib; first compound 0.04 µM): 0.491 | relative viability (FH535 + Luminespib; first compound 0.1265 µM): 0.556 | relative viability (FH535 + Luminespib; first compound 0.4 µM): 0.615 | relative viability (FH535 + Luminespib; first compound 1.265 µM): 0.52 | relative viability (FH535 + Linsitinib; first compound 0.04 µM): 1.2 | relative viability (FH535 + Linsitinib; first compound 0.1265 µM): 1.07 | relative viability (FH535 + Linsitinib; first compound 0.4 µM): 1.25 | relative viability (FH535 + Linsitinib; first compound 1.265 µM): 1.04 | relative viability (FH535 + Lapatinib; first compound 0.04 µM): 0.737 | relative viability (FH535 + Lapatinib; first compound 0.1265 µM): 0.959 | relative viability (FH535 + Lapatinib; first compound 0.4 µM): 0.898 | relative viability (FH535 + Lapatinib; first compound 1.265 µM): 0.864 | relative viability (FH535 + Phenformin; first compound 0.04 µM): 0.665 | relative viability (FH535 + Phenformin; first compound 0.1265 µM): 0.669 | relative viability (FH535 + Phenformin; first compound 0.4 µM): 0.644 | relative viability (FH535 + Phenformin; first compound 1.265 µM): 0.563 | relative viability (FH535 + Pemetrexed; first compound 0.04 µM): 0.786 | relative viability (FH535 + Pemetrexed; first compound 0.1265 µM): 0.679 | relative viability (FH535 + Pemetrexed; first compound 0.4 µM): 0.752 | relative viability (FH535 + Pemetrexed; first compound 1.265 µM): 0.625 | relative viability (FH535 + Bortezomib; first compound 0.04 µM): 0.835 | relative viability (FH535 + Bortezomib; first compound 0.1265 µM): 1.04 | relative viability (FH535 + Bortezomib; first compound 0.4 µM): 0.816 | relative viability (FH535 + Bortezomib; first compound 1.265 µM): 0.719 | relative viability (FH535 + OSI-027; first compound 0.04 µM): 0.736 | relative viability (FH535 + OSI-027; first compound 0.1265 µM): 0.701 | relative viability (FH535 + OSI-027; first compound 0.4 µM): 0.801 | relative viability (FH535 + OSI-027; first compound 1.265 µM): 0.678 | relative viability (FH535 + Foretinib; first compound 0.04 µM): 0.909 | relative viability (FH535 + Foretinib; first compound 0.1265 µM): 0.825 | relative viability (FH535 + Foretinib; first compound 0.4 µM): 0.994 | relative viability (FH535 + Foretinib; first compound 1.265 µM): 0.874 | relative viability (FH535 + Dasatinib; first compound 0.04 µM): 0.445 | relative viability (FH535 + Dasatinib; first compound 0.1265 µM): 0.495 | relative viability (FH535 + Dasatinib; first compound 0.4 µM): 0.508 | relative viability (FH535 + Dasatinib; first compound 1.265 µM): 0.435 | relative viability (FH535; 0.04 µM): 0.954 | relative viability (FH535; 0.1265 µM): 0.892 | relative viability (FH535; 0.4 µM): 0.995 | relative viability (FH535; 1.265 µM): 0.771

NCI-H1623
relative viability (FH535 + Tozasertib; first compound 0.04 µM): 0.391 | relative viability (FH535 + Tozasertib; first compound 0.1265 µM): 0.426 | relative viability (FH535 + Tozasertib; first compound 0.4 µM): 0.426 | relative viability (FH535 + Tozasertib; first compound 1.265 µM): 0.45 | relative viability (FH535 + Luminespib; first compound 0.04 µM): 0.609 | relative viability (FH535 + Luminespib; first compound 0.1265 µM): 0.574 | relative viability (FH535 + Luminespib; first compound 0.4 µM): 0.513 | relative viability (FH535 + Luminespib; first compound 1.265 µM): 0.509 | relative viability (FH535 + Phenformin; first compound 0.04 µM): 0.551 | relative viability (FH535 + Phenformin; first compound 0.1265 µM): 0.523 | relative viability (FH535 + Phenformin; first compound 0.4 µM): 0.495 | relative viability (FH535 + Phenformin; first compound 1.265 µM): 0.468 | relative viability (FH535 + OSI-027; first compound 0.04 µM): 0.424 | relative viability (FH535 + OSI-027; first compound 0.1265 µM): 0.525 | relative viability (FH535 + OSI-027; first compound 0.4 µM): 0.451 | relative viability (FH535 + OSI-027; first compound 1.265 µM): 0.413 | relative viability (FH535 + Foretinib; first compound 0.04 µM): 0.816 | relative viability (FH535 + Foretinib; first compound 0.1265 µM): 0.855 | relative viability (FH535 + Foretinib; first compound 0.4 µM): 0.823 | relative viability (FH535 + Foretinib; first compound 1.265 µM): 0.777 | relative viability (FH535 + Dasatinib; first compound 0.04 µM): 0.515 | relative viability (FH535 + Dasatinib; first compound 0.1265 µM): 0.468 | relative viability (FH535 + Dasatinib; first compound 0.4 µM): 0.508 | relative viability (FH535 + Dasatinib; first compound 1.265 µM): 0.478 | relative viability (FH535; 0.04 µM): 1.02 | relative viability (FH535; 0.1265 µM): 0.948 | relative viability (FH535; 0.4 µM): 0.991 | relative viability (FH535; 1.265 µM): 0.912
